Data as given in US10723699B2 (Hyundai Pharm Co., Ltd., priority 2015, dated 2020).
Entries after “also recorded” stand apart in the source; their conditions may differ.

Key:
[1] = test system: diet-induced obesity (DIO) rat model; experiment: Changes in weights in diet-induced obesity (DIO) rat model, 4-week administration; format: in vivo, Sprague Dawley (SD) rats; details: 10, 20, and 50 mg/kg oral, 4 weeks
Method: To simultaneously evaluate both the weight-loss and hypoglycemic effects of the cyclohexene derivative according to the present invention, experiments were carried out, as follows.
(§1) Specifically, male Sprague Dawley (SD) rats (approximately 4 weeks old) in a diet-induced obesity model were fed with a high-fat diet (Lab. Diet Co.) for approximately 10 weeks to induce high-fat diet-induced obesity (DIO). The rats undergoing the high-fat diet were randomly selected, and divided into groups (n=8) for respective administrations. The compounds of Comparative Examples 3 and 4 and Examples 48 and 119 were administered to the divided DIO rats each group for 4 weeks.
(§2) The weights of the DIO rats were measured twice a week during a period of administration of 4 weeks to record a change in the weights. At the end of the 4-week period of administration, a hypoglycemic effect was evaluated using an oral glucose tolerance test (OGTT), as follows.

[2] = test system: diet-induced obesity (DIO) rat model; experiment: OGTT at the end of the 4-week administration in DIO rat model; format: in vivo, Sprague Dawley (SD) rats; details: 50 mg/kg oral; glucose 2 g/kg 30 minutes later; after 4-week administration
Method: as §1, §2
Specifically, each of the compounds of Comparative Example 3 (300 mg/kg) and Examples 48 and 119 (10, 20, 50 mg/kg) was administered, and 2 g/kg of glucose was orally administered after 30 minutes of the administration. A blood glucose level was determined using an Accu-Chek Active Strip (Roche diagnostic Co.). In this case, the glucose level in blood collected via caudal venipuncture was measured at time points of −30, 0, 20, 40, 60, and 120 minutes after glucose administration. […]

NCI-H716 cells = experiment: Promotion of glucagon-like peptide-1 (GLP-1) secretion (ELISA); format: cell-based, human; details: 1, 10 and 30 μM-treated groups
Method: To evaluate an effect of the cyclohexene derivative according to the present invention on promotion of glucagon-like peptide-1 (GLP-1) secretion, experiments were carried out, as follows.
NCI-H716 cells that were human enterocytes were plated on 12 wells at 1×10^6 cells per well. After 48 hours, the cells were starved in serum-free media for 2 hours, and treated with a varying concentration of siptagliptin that was a dipeptidyl peptidase-IV (DPP-IV) inhibitor, and the compounds of Comparative Example 1 (1, 10, 30 μM), Comparative Example 5 (10 μM), Example 48 (1, 10, 30 μM), and Example 291 (1, 10, 30 μM). After an hour, supernatants are recovered to determine an amount of the secreted GLP-1 peptide. The GLP-1 measurement was performed using an enzyme-linked immunosorbant assay (ELISA; Millipore, EGLP-35K), and the amount of the secreted GLP-1 peptide was indicated by the unit “pM”.

In the case of `CC(C)c1noc(N2CCC(COc3ccc(C4=CCC(C(=O)N5CC[C@@H](O)C5)CC4)cc3)CC2)n1` (stereo partly drawn) [Example 48, ((R)-3-hydroxypyrrolidin-1-yl)(4-(4-((1-(3-isopropyl-1,2,4-oxadiazol-5-yl)piperidin-4-yl)methoxy)phenyl)cyclohex-3-enyl)methanone], the “changes in weights of rats (weight-loss effect)” value [1] is reported as “higher weight-loss effect; also recorded: persistent weight loss was observed for 4 weeks”, the hypoglycemic effect [2] is reported as “approximately 25%” and the “GLP-1 secretion compared with Comparative Example 1” value (NCI-H716 cells) is reported as “higher level than that of Comparative Example 1”.
